# Source: ChEMBL document CHEMBL1157764, “Conserved high activity binding peptides are involved in adhesion of two detergent-resistant membrane-associated merozoite proteins to red blood cells during invasion” (J Med Chem, 2010)
# Species: Homo sapiens
# Experiment: Binding affinity to RBC membrane receptor in human RBCs assessed as specific binding activity measured as ratio of specifically bound peptide/added peptide by gamma counter
row,Activity [%],Structure (SMILES)
1,> 2,CC(C)C[C@H](NC(=O)[C@@H](NC(=O)[C@@H](N)CC(=O)O)C(C)C)C(=O)N[C@@H](CO)C(=O)N[C@@H](CCC(=O)O)C(=O)N[C@@H](CO)C(=O)N[C@@H](CC(N)=O)C(=O)N[C@@H](CC(N)=O)C(=O)N[C@@H](CCC(=O)O)C(=O)N[C@@H](CC(N)=O)C(=O)N[C@@H](CCCCN)C(=O)N[C@@H](CCC(=O)O)C(=O)N[C@H](C(=O)N[C@@H](CO)C(=O)N[C@@H](CC(=O)O)C(=O)N[C@@H](CC(=O)O)C(=O)N[C@@H](C)C(=O)N[C@H](C(=O)N[C@@H](Cc1cnc[nH]1)C(=O)N[C@@H](Cc1ccc(O)cc1)C(=O)O)[C@@H](C)O)[C@@H](C)O
2,> 2,CC(C)[C@H](NC(=O)[C@H](Cc1ccc(O)cc1)NC(=O)[C@@H](N)CCC(=O)O)C(=O)N[C@@H](CC(N)=O)C(=O)N[C@@H](C)C(=O)N[C@@H](CC(N)=O)C(=O)N[C@@H](CO)C(=O)N[C@@H](CO)C(=O)N[C@@H](CCC(=O)O)C(=O)N[C@@H](CO)C(=O)N[C@@H](CO)C(=O)N[C@@H](CCC(=O)O)C(=O)N[C@@H](CCC(=O)O)C(=O)N[C@@H](CC(=O)O)C(=O)N[C@H](C(=O)N[C@H](C(=O)N1CCC[C@H]1C(=O)N[C@@H](CC(N)=O)C(=O)N[C@@H](CCC(=O)O)C(=O)N[C@H](C(=O)O)[C@@H](C)O)[C@H](C)O)[C@@H](C)O
3,> 2,CC[C@H](C)[C@H](NC(=O)[C@@H](N)CO)C(=O)N[C@@H](CCC(=O)O)C(=O)N[C@@H](C)C(=O)N[C@@H](CO)C(=O)N[C@@H](CCC(=O)O)C(=O)N[C@@H](CO)C(=O)N[C@@H](CO)C(=O)N[C@@H](CCC(N)=O)C(=O)N[C@@H](CCCCN)C(=O)N[C@@H](CC(=O)O)C(=O)N[C@@H](CCC(=O)O)C(=O)N[C@H](C(=O)N[C@@H](CCCCN)C(=O)N[C@@H](CCC(=O)O)C(=O)N[C@H](C(=O)N[C@@H](CCC(=O)O)C(=O)N[C@@H](CC(=O)O)C(=O)N[C@@H](CCCCN)C(=O)N[C@@H](CCC(=O)O)C(=O)N[C@@H](Cc1ccc(O)cc1)C(=O)O)[C@H](C)O)[C@@H](C)O
4,> 2,CC[C@H](C)[C@H](NC(=O)[C@H](C)NC(=O)[C@H](CCC(=O)O)NC(=O)[C@H](C)NC(=O)[C@H](CC(=O)O)NC(=O)[C@@H](NC(=O)[C@H](CO)NC(=O)[C@H](CC(=O)O)NC(=O)[C@H](CCC(=O)O)NC(=O)[C@H](CC(=O)O)NC(=O)[C@H](CC(N)=O)NC(=O)[C@H](CCC(N)=O)NC(=O)[C@H](CCC(N)=O)NC(=O)[C@H](CC(C)C)NC(=O)[C@H](CCC(=O)O)NC(=O)[C@@H](N)CCC(=O)O)[C@@H](C)O)C(=O)N[C@@H](CC(=O)O)C(=O)N[C@@H](CCCCN)C(=O)N[C@@H](CCC(=O)O)C(=O)N[C@@H](CCC(=O)O)C(=O)N[C@H](C(=O)N[C@@H](CCC(=O)O)C(=O)N[C@@H](Cc1ccc(O)cc1)C(=O)O)C(C)C
5,> 2,CC[C@H](C)[C@H](NC(=O)[C@H](CC(N)=O)NC(=O)[C@@H](NC(=O)[C@H](CC(N)=O)NC(=O)CNC(=O)[C@H](CC(=O)O)NC(=O)[C@H](CCCCN)NC(=O)[C@@H](NC(=O)[C@@H](NC(=O)[C@@H](NC(=O)[C@@H]1CCCN1C(=O)[C@H](CCC(=O)O)NC(=O)[C@H](CCC(=O)O)NC(=O)[C@H](CC(N)=O)NC(=O)[C@@H](N)CCCCN)C(C)C)[C@@H](C)CC)C(C)C)[C@@H](C)CC)C(=O)N[C@@H](CCCCN)C(=O)N[C@@H](CO)C(=O)N[C@@H](C)C(=O)N[C@@H](CC(C)C)C(=O)N[C@@H](CC(C)C)C(=O)N[C@@H](Cc1ccc(O)cc1)C(=O)O
6,> 2,CC[C@H](C)[C@H](NC(=O)[C@H](CCCNC(=N)N)NC(=O)[C@H](CC(C)C)NC(=O)[C@H](CC(=O)O)NC(=O)[C@H](CCC(=O)O)NC(=O)[C@@H](NC(=O)[C@@H](NC(=O)[C@H](CO)NC(=O)CNC(=O)[C@H](CCCCN)NC(=O)[C@@H](N)CCCCN)[C@@H](C)CC)[C@@H](C)O)C(=O)N[C@H](C(=O)N[C@@H](CC(N)=O)C(=O)N[C@@H](CC(=O)O)C(=O)N[C@@H](CC(C)C)C(=O)N[C@@H](CCC(=O)O)C(=O)N1CCC[C@H]1C(=O)N[C@@H](CC(C)C)C(=O)N[C@@H](CC(=O)O)C(=O)N[C@@H](Cc1ccc(O)cc1)C(=O)O)C(C)C
7,> 2,CC[C@H](C)[C@H](NC(=O)[C@H](Cc1ccc(O)cc1)NC(=O)[C@H](CCCCN)NC(=O)[C@H](CC(N)=O)NC(=O)[C@@H](N)CCCCN)C(=O)N[C@@H](CO)C(=O)N[C@@H](CC(C)C)C(=O)N[C@@H](Cc1ccc(O)cc1)C(=O)N[C@@H](CC(N)=O)C(=O)N[C@@H](CCCCN)C(=O)N[C@H](C(=O)N[C@@H](CCCCN)C(=O)N[C@H](C(=O)N[C@H](C(=O)N[C@@H](CCSC)C(=O)N1CCC[C@H]1C(=O)N[C@@H](CCC(=O)O)C(=O)N[C@@H](CC(C)C)C(=O)N[C@@H](Cc1ccccc1)C(=O)N[C@@H](CC(=O)O)C(=O)O)[C@@H](C)O)[C@H](C)O)C(C)C

# The next lines start with the compound.
row,Structure (SMILES),Activity [%]
1,CC(C)C[C@H](NC(=O)[C@H](CC(C)C)NC(=O)[C@H](CO)NC(=O)[C@@H]1CCCN1C(=O)[C@@H](NC(=O)[C@H](CC(C)C)NC(=O)[C@H](Cc1ccc(O)cc1)NC(=O)[C@H](CO)NC(=O)[C@H](CCCCN)NC(=O)[C@H](CCCCN)NC(=O)[C@H](CCCCN)NC(=O)CNC(=O)[C@@H](NC(=O)[C@H](CO)NC(=O)[C@H](CS)NC(=O)[C@H](CCCCN)NC(=O)[C@H](Cc1cnc[nH]1)NC(=O)[C@H](Cc1ccc(O)cc1)NC(=O)[C@H](CC(=O)O)NC(=O)[C@@H](N)CO)C(C)C)[C@@H](C)O)C(=O)O,< 2
2,CC(C)C[C@H](NC(=O)[C@H](CC(N)=O)NC(=O)[C@H](CC(C)C)NC(=O)[C@@H]1CCCN1C(=O)[C@H](CC(N)=O)NC(=O)[C@H](CCCCN)NC(=O)[C@H](Cc1ccc(O)cc1)NC(=O)[C@@H](N)CS)C(=O)N[C@@H](CCCCN)C(=O)N[C@H](C(=O)N[C@@H](CC(C)C)C(=O)N[C@@H](CCC(=O)O)C(=O)N[C@H](C(=O)N[C@@H](CC(C)C)C(=O)N[C@@H](CC(C)C)C(=O)N[C@@H](CCCCN)C(=O)N[C@@H](CCCCN)C(=O)N[C@@H](CC(N)=O)C(=O)N[C@@H](Cc1ccc(O)cc1)C(=O)N[C@@H](Cc1ccc(O)cc1)C(=O)O)C(C)C)C(C)C,> 2
3,CC(C)[C@H](NC(=O)[C@H](CC(=O)O)NC(=O)[C@H](CC(=O)O)NC(=O)[C@H](CC(=O)O)NC(=O)[C@H](CO)NC(=O)[C@H](CCC(=O)O)NC(=O)[C@H](CC(N)=O)NC(=O)[C@H](CC(=O)O)NC(=O)[C@H](CCC(N)=O)NC(=O)[C@H](CC(N)=O)NC(=O)[C@H](CCCCN)NC(=O)[C@H](CC(N)=O)NC(=O)[C@H](CCC(=O)O)NC(=O)[C@@H](N)CC(=O)O)C(=O)N[C@@H](CC(N)=O)C(=O)N[C@@H](CC(N)=O)C(=O)N[C@@H](CC(N)=O)C(=O)N[C@@H](CC(N)=O)C(=O)N[C@@H](CC(N)=O)C(=O)N[C@@H](CC(N)=O)C(=O)N[C@@H](Cc1ccc(O)cc1)C(=O)N[C@@H](CC(N)=O)C(=O)N[C@@H](CC(N)=O)C(=O)N[C@@H](CC(=O)O)C(=O)N[C@@H](CC(=O)O)C(=O)O,> 2
4,CC[C@H](C)[C@H](NC(=O)[C@@H](NC(=O)[C@H](CC(=O)O)NC(=O)[C@H](CC(N)=O)NC(=O)[C@H](Cc1cnc[nH]1)NC(=O)[C@@H](NC(=O)[C@H](Cc1ccc(O)cc1)NC(=O)[C@H](CS)NC(=O)[C@@H](N)CCCNC(=N)N)C(C)C)C(C)C)C(=O)N[C@@H](CCCCN)C(=O)N[C@@H](Cc1ccccc1)C(=O)NCC(=O)N[C@@H](CCC(=O)O)C(=O)N[C@@H](CCC(=O)O)C(=O)N[C@@H](CC(N)=O)C(=O)N[C@@H](CO)C(=O)N[C@@H](CC(C)C)C(=O)N[C@@H](CCCCN)C(=O)N[C@@H](CS)C(=O)N[C@@H](CO)C(=O)O,> 2
5,CC[C@H](C)[C@H](NC(=O)[C@H](CC(C)C)NC(=O)[C@@H](N)C(C)C)C(=O)N[C@@H](C)C(=O)N[C@@H](CCC(=O)O)C(=O)NCC(=O)N[C@@H](Cc1ccc(O)cc1)C(=O)N[C@@H](CCCCN)C(=O)N[C@@H](CCCNC(=N)N)C(=O)N[C@H](C(=O)N[C@@H](CC(N)=O)C(=O)N[C@@H](CCC(=O)O)C(=O)N[C@@H](CCCCN)C(=O)N[C@@H](CCC(=O)O)C(=O)N[C@@H](CC(=O)O)C(=O)N[C@H](C(=O)N[C@@H](CC(=O)O)C(=O)N[C@@H](CCCNC(=N)N)C(=O)N[C@@H](CCCNC(=N)N)C(=O)O)[C@@H](C)CC)[C@@H](C)CC,> 2
6,CC[C@H](C)[C@H](NC(=O)[C@H](CC(C)C)NC(=O)[C@H](CS)NC(=O)[C@@H](NC(=O)[C@H](CC(C)C)NC(=O)[C@H](Cc1ccccc1)NC(=O)[C@H](CCC(N)=O)NC(=O)[C@H](CC(C)C)NC(=O)[C@H](CC(C)C)NC(=O)[C@H](CC(C)C)NC(=O)[C@@H](NC(=O)[C@H](Cc1cnc[nH]1)NC(=O)[C@H](CC(C)C)NC(=O)[C@@H](NC(=O)[C@H](Cc1ccccc1)NC(=O)[C@H](Cc1ccccc1)NC(=O)[C@@H]1CCCN1C(=O)[C@@H](NC(=O)[C@H](CCCCN)NC(=O)[C@@H](N)CCSC)[C@@H](C)CC)[C@@H](C)CC)[C@@H](C)CC)[C@@H](C)CC)C(=O)N[C@@H](Cc1ccc(O)cc1)C(=O)O,> 2
7,CC[C@H](C)[C@H](NC(=O)[C@H](CCC(N)=O)NC(=O)CNC(=O)[C@H](C)NC(=O)[C@@H](N)CC(C)C)C(=O)N[C@@H](CC(N)=O)C(=O)NCC(=O)N[C@@H](CC(C)C)C(=O)N[C@@H](CC(N)=O)C(=O)N[C@@H](CC(=O)O)C(=O)N[C@@H](CC(C)C)C(=O)N[C@@H](Cc1ccc(O)cc1)C(=O)NCC(=O)N[C@@H](CCCNC(=N)N)C(=O)N[C@@H](CC(N)=O)C(=O)N[C@@H](CO)C(=O)N[C@@H](CCCCN)C(=O)N[C@@H](CCCCN)C(=O)N[C@H](C(=O)N[C@@H](Cc1ccc(O)cc1)C(=O)O)[C@@H](C)O,< 2
8,CC[C@H](C)[C@H](NC(=O)[C@H](Cc1ccccc1)NC(=O)[C@H](CC(C)C)NC(=O)[C@H](CC(C)C)NC(=O)[C@H](CC(C)C)NC(=O)[C@H](CC(C)C)NC(=O)[C@@H](NC(=O)[C@@H](NC(=O)[C@H](CC(C)C)NC(=O)[C@H](CC(C)C)NC(=O)[C@H](C)NC(=O)[C@H](CC(N)=O)NC(=O)[C@H](CO)NC(=O)[C@H](CCSC)NC(=O)[C@H](C)NC(=O)[C@H](Cc1ccccc1)NC(=O)[C@@H](N)Cc1ccccc1)C(C)C)[C@@H](C)CC)C(=O)N[C@@H](CCC(=O)O)C(=O)N[C@@H](Cc1ccccc1)C(=O)N[C@@H](CC(C)C)C(=O)N[C@@H](Cc1ccc(O)cc1)C(=O)O,> 2
